This is an account of results in patent US20230146870A1, “METHOD TO QUANTIFY AFFINITY AND SELECTIVITY OF SMALL MOLECULES FOR PROTEINS IN LIVING CELLS” (Ohio State Innovation Foundation, priority 2021, published 2023).

Data set [1] has as its target T1, rat EGFP-N2-PKCγ (Rattus norvegicus, UniProt P63319).
T1 construct: transiently transfected with DNA encoding the full-length rat PKCγ-EGFP; host or cells: HEK293
In words: Confocal video microscopy of PKCγ trafficking in HEK293 cells. The conditions noted are these: 33 at 1 μM, after 10 min. Type of data set: cell-based. The text has this: Blue fluorescence of 33 is shown in the right panels (Ex. 405 nm, Em. 410-495 nm, Gain 50), green fluorescence of transiently transfected EGFP-N2-PKCγ protein is shown in the middle panels (Ex. 488 nm, Em. 500-650 nm, Gain 700), and DIC images are shown in the left panels. Trafficking of PKCγ-mEGFP protein to membranes induced by 33 can be observed Images were acquired with a Leica SP8 microscope (63× objective). Scale bar=25 μm.
It appears that this is due to efflux of this compound from cells mediated by efflux transporters such as Pgp. To explore this idea, two-color confocal video microscopy was used. Briefly, HEK293 cells were transiently transfected with commercially available plasmid DNA encoding rat PKCγ fused to GFP (EGFP-N2-PKCγ, Addgene Plasmid #21204).^84 The HEK293 cell line is known to expresses multiple efflux transporters including Pgp (MDR1/ABCB1).^85 The fluorescence of GFP was monitored by excitation with a 488 nm laser and emission collected between 500-650 nm. […] In addition, the cell morphology was recorded using differential interference contrast microscopy (DIC). The localization of the fluorescent probe and the GFP fusion protein was recorded using video confocal microscopy immediately after treatment of transfected cells with 33. […]

Data set [2] addresses T2, mouse PKCβI-mVenus (Mus musculus, UniProt P68404).
T2 construct: eight plasmids encoding full length mouse PKC isozymes fused to; expressed in transfected cells; host or cells: HEK293
In words: Apparent cellular Kd by flow cytometry, HEK293 cells overexpressing PKCβI-mVenus (Example 2). It counts as binding. The procedure: The apparent Kd values of these fluorescent probes were measured using different PKC isozymes (e.g., PKCβI, FIGS. 20A-20D). HEK293 cells were transfected to overexpress PKCβ-mVenus and treated with probes in the presence of verapamil (100 μM) as an inhibitor of efflux.
(In general: In flow cytometry, cells or beads pass a laser one at a time.)

For data set [3], the target named is T3, C1A-C1A-EYFP (PKCγ) (UniProt P63319).
T3 construct: apparent Kd; other: verapamil 100 μM, 90 min, 37° C., DMEM high glucose, 4% FBS; half time (t1/2) of cellular fluorescence; other: 33 at 5 μM, verapamil 100 μM, room temperature; fused on or other part: EYFP at the C-terminus; the C1A module is present twice in one chain
In words: Cellular binding by flow cytometry, HEK293 cells expressing C1A-C1A-EYFP (PKCγ). The conditions noted are these: verapamil 100 μM. The text has this:
The dissociation constant can be defined as the ratio of koff divided by kon. This value is also the concentration where the ligand occupies 50% of the receptor.^94 Kd is only meaningful when equilibrium is reached, where the ligand-receptor complex is formed at the same rate as it dissociates into free ligand and receptor (FIG. 15). This binding equilibrium is established when essentially no further change in the amount of bound complex is observed over time. To evaluate the time needed for equilibration, we treated HEK293 cells that overexpress C1A-C1A-EYFP (PKCγ) with 33 (0 and 5 μM) in the presence or absence of verapamil (100 μM) and cellular fluorescence was measured by flow cytometry as a function of time (FIG. 18A). […] This optimization was used to establish a 90 min equilibration period for further assay optimization.
The presence of fetal bovine serum (FBS) in the culture media also influenced the binding by sequestering the free ligand. The assay conditions were finalized using HEK293 cells incubated with the probe in the presence of verapamil for 90 min at 37° C. in DMEM media (high glucose, 4% FBS).

For data set [4], the system named is Jurkat cells. In words: Cellular viability assay, Jurkat lymphocytes, 48 h, flow cytometry (Example 2). Type of data set: cell-based. The conditions noted are these: Homo sapiens, Jurkat, read-out: toxicity towards Jurkat cells, IC50. The procedure: The impact of membrane transporters on the toxicity profile of 49 was also studied.
Jurkat lymphocytes were seeded into a 96-well plate in fresh complete medium at 2.5×10^5 cells/mL and 200 μL per well. All compounds were serial diluted in DMSO and added to complete media to achieve a 1:1000 dilution factor (0.10% DMSO in each well). […] The total cell-count for each well was determined by flow cytometry and staining with propidium iodide was used to identify populations of live cells (only dead cells are stained by PI). Counts of viable cells for each treatment, determined in triplicate, were used to generate dose-response curves. These curves were fitted with non-linear regression using an inhibitor vs. response variable slope […] model (GraphPad Prism 9) to determine IC50 values.

In data set [5] the test system is HEK293 cells. In words: Viability of HEK293 cells during probe treatment by flow cytometry. Type of data set: cell-based. The following applies: 33 at 1 μM, verapamil 0, 25 or 100 μM, 1 h. The procedure: FIGS. 14A and 14B show quantification of fluorescence (FIG. 14A) and viability (FIG. 14B) upon treatment of HEK293 cells with compound 33 (1 μM) and verapamil (0, 25 or 100 μM) for 1 h. Total [DMSO]=0.2%. Error bars represent SD (N=3). Statistical significance analyzed by one-way ANOVA (GraphPad Prism 9). **, P<0.01; ****, P<0.0001. Samples were analyzed with a Beckman Coulter Cytoflex flow cytometer. (Ex. 405 nm/Em. […]). […] Compound 33 is non-toxic under these conditions.
FIGS. 16A-16D show quantification of non-specific binding and cell viability after treatment for 1 h at 37° C. with compound 33 (2-fold serial dilution from 5 μM) and verapamil (75 μM) in the presence of different competitors (PMA or non-fluorescent PB-carbamate 8, at 0, 5 and 10 μM). Total [DMSO]=0.3%. (FIG. 16A) Parental HEK293 cells analyzed after treatment with 33 in the presence or absence of PMA or compound 8. […] Samples were analyzed with a Beckman Coulter Cytoflex flow cytometer and gated to analyze living cells (Ex. 405 nm; Em. 450/45 nm).
The efflux of this fluorescent probe was next studied by flow cytometry. […] The blue fluorescent signal (405 nm laser) of HEK293 cells overexpressing green fluorescent full-length PKCγ-EGFP was elucidated (the median protein concentration was determined to be ˜5.0 μM as measured by flow cytometry by comparison with Spherotech rainbow bead standards as described herein). […]

The target in data set [6] is C1 domain of human PKD (purified C1AB domain) (Homo sapiens, UniProt Q15139). In words: [3H]PDBu competition assay with purified C1AB domain of PKD. Type of data set: binding. The protocol: Affinities were measured with a radioactive […]
The results of the biochemical binding assays with cellular binding assays were used to quantitatively investigate differences between conventional biochemical measurements of Ki values with this novel method for determination of Ki values in cellule.

Data set [7] has as its target mouse PKCα-mVenus (Mus musculus, UniProt P20444). In words: Apparent cellular Kd by flow cytometry, HEK293 cells overexpressing PKCα-mVenus (Example 2). The conditions noted are these: 90 min.
The target in data set [8] is full-length rat PKCγ-EGFP (Rattus norvegicus, UniProt P63319). In words: Cellular binding by flow cytometry, HEK293 cells expressing full-length PKCγ-EGFP. The following applies: verapamil 100 μM.
Data set [9] deals with mouse PKCγ-mVenus (Mus musculus, UniProt P63318). In words: Apparent cellular Kd by flow cytometry, HEK293 cells overexpressing PKCγ-mVenus (Example 2). The following applies: 90 min.

Entries after “also recorded” stand apart in the source; their conditions may differ. Where two headings read alike, the source gives them in different places.

Sequence of C1 domain of human PKD (purified C1AB domain) (Q15139 whole entry, the tested form may be a part): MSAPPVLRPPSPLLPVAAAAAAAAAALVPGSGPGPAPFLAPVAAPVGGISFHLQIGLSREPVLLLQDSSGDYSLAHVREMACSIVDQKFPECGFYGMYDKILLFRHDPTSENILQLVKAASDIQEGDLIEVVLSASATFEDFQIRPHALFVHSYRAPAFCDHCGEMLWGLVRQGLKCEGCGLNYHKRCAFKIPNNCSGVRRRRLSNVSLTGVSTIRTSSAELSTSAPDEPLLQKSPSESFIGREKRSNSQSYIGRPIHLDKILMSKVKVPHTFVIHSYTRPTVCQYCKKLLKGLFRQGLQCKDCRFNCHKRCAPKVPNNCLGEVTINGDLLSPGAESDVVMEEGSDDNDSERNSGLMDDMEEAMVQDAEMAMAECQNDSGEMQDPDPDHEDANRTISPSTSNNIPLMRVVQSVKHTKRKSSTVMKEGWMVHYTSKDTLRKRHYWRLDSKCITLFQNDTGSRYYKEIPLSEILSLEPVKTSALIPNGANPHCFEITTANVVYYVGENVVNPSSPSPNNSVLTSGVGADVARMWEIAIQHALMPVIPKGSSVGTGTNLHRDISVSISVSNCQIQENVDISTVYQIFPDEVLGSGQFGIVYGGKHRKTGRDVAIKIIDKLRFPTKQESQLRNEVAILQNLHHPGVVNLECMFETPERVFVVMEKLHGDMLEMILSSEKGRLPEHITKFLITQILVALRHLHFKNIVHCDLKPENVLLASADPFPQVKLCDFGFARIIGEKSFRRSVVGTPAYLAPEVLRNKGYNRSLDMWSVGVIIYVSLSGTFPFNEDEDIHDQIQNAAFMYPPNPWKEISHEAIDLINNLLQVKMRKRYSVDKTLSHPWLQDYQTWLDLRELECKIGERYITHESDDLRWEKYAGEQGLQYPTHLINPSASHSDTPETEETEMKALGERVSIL
T2 sequence (P68404 whole entry, the tested form may be a part): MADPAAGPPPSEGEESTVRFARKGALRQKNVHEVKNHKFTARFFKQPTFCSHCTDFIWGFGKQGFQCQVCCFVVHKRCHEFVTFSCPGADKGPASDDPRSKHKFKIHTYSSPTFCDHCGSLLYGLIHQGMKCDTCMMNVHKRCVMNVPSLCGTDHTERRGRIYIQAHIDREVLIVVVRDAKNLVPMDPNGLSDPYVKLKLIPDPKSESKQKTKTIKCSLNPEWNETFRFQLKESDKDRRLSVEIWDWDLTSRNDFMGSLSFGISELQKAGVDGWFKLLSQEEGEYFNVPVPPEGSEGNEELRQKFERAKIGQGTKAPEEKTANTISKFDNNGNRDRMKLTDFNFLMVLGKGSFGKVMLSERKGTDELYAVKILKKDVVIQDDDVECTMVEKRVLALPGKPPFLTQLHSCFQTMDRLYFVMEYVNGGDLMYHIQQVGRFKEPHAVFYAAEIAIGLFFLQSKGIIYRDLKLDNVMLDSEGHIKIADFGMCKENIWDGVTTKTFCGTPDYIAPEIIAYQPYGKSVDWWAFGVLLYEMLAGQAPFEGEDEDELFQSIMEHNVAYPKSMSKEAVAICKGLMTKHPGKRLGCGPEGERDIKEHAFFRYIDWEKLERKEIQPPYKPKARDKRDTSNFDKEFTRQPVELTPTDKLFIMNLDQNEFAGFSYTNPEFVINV

For `CC1=C[C@H]2[C@@]3(O)[C@H](C)[C@@H](O)[C@]4(OC(=O)N(C)CCCCCCCCCCCCN(C)C(=O)c5cc6cc(F)c(O)c(F)c6oc5=O)[C@H]([C@@H]3C=C(CO)C[C@]2(O)C1=O)C4(C)C` [probe 33, (1aR,1bS,4aR,7aS,7bS,8R,9R,9aS)-4a,7b,9-trihydroxy-3-(hydroxymethyl)-1,1,6,8-tetramethyl-5-oxo-1,1a,1b,4,4a,5,7a,7b,8,9-decahydro-9aH-cyclopropa[3,4]benzo[1,2-e]azulen-9a-yl (12-(6,8-difluoro-7-hydroxy-N-methyl-2-oxo-2H-chromene-3-carboxamido)dodecyl)(methyl)carbamate], the “trafficking of PKCγ” value in data set [1] was “translocation of PKCγ to the plasma membrane”. Besides, the Kd came to 2.7 µM in data set [2] and 6.4 µM in data set [3] (90 min, 37° C., DMEM high glucose, 4% FBS, read-out: apparent Kd). In addition, the “half time (t1/2) of cellular fluorescence” value in data set [3] (33 at 5 μM, room temperature) is given as “about 32 min”. For the same compound, the IC50 – broadly, the midpoint of a concentration-inhibition curve – in [4] is ~12 µM. In addition, the “toxicity to HEK293 cells” value in data set [5] is “non-toxic; also recorded: no toxicity”. The values for the Ki in data set [6] (Ki for purified C1AB domain of PKD) and in data set [6] (read-out: Ki for purified C1AB domain of PKD) were 0.03 µM and ~0.03 µM, respectively.

Turning to `CC1=C[C@H]2[C@@]3(O)[C@H](C)[C@@H](O)[C@]4(OC(=O)N(C)CCCCCCCCCCCCN(C)C(=O)c5cc6ccc(O)cc6oc5=O)[C@H]([C@@H]3C=C(CO)C[C@]2(O)C1=O)C4(C)C` [probe 34, (1aR,1bS,4aR,7aS,7bS,8R,9R,9aS)-4a,7b,9-trihydroxy-3-(hydroxymethyl)-1,1,6,8-tetramethyl-5-oxo-1,1a,1b,4,4a,5,7a,7b,8,9-decahydro-9aH-cyclopropa[3,4]benzo[1,2-e]azulen-9a-yl (12-(7-hydroxy-N-methyl-2-oxo-2H-chromene-3-carboxamido)dodecyl)(methyl)carbamate], the “specific binding to PKCβI-mVenus” value in [2] (90 min) is listed as “not measurable”. For the same compound, the “specific binding to PKCα-mVenus” value in data set [7] is recorded as “no specific binding”. For the same compound, the “total binding fluorescence vs non-specific binding” value in data set [8] is on record as “identical or lower than the non-specific binding value”. Besides, in data set [9], the “specific binding to PKCγ-mVenus” value is “no specific binding”.
